From patent EP0556962A1, “Small peptide and pseudopeptide amides inhibiting the proliferation of small-cell and epithelial-cell lung cancer cells” (RICHTER GEDEON VEGYESZETI GYAR R.T., priority 1992, dated 1993)
Where a SMILES comes first, the peptide text is derived from it. [ ]: non-standard residue; d: D form. The star is where a group is joined. X2 = CC(C)C[C@@H](CN[C@@H](CC(C)C)C(N)=O)N*; X1 = O=C(Cc1ccc(O)cc1)*

Test system: BN receptors on the Swiss 3T3 mouse fibroblast cell line
Test: Test 1: displacement of [¹²⁵I-Tyr⁴]-BN from BN receptors on Swiss 3T3 cells
Type: binding
Settings: 1 nmol [¹²⁵I-Tyr⁴]-BN, 4 °C, 3 hours
Procedure: The biological investigation of the new compounds of the invention was carried out in four tests. The BN-antagonizing effect of the compounds in question was determined in Test 1, based on measuring the displacement of the labelled [¹²⁵I-Tyr⁴]-BN from the BN receptors being present on the Swiss 3T3 mouse fibroblast cells. Test 2 and Test 3 were used to study the inhibitory effect of the compounds of the invention on the proliferation and propagation of NCI-H69 small-cell lung cancer cells. The inhibitory effect of the compounds of the invention on non-small-cell lung cancer cells and epithelial-cell lung cancer cells was investigated in Test 4.
Study of the binding of target compounds to BN receptors on the Swiss 3T3 mouse fibroblast cell line
Swiss 3T3 mouse fibroblast cells were grown on tissue-cultivating plates containing 24 holes in a D-MEM culture medium containing FCS of 10 % until a confluent and resting state (3x10⁵ cell/hole). The cells were washed 3 times with 0.5 ml of D-MEM of pH 7.4 (containing 0.2 % of BSA and 24 mmol of HEPES, and cooled to 4 °C), i.e. incubation mixture, each. […] At the end of the reaction the cells were washed twice with the incubation mixture and then 3 times with PBS (pH = 7.4).
The washings were carried out with 750 µl volumes of the ice-cold liquids each. The cells were solubilized by adding 750 µl of 0.5 M sodium hydroxide solution, carried over into test-tubes by pipette and the radio-activity bound to the cells was measured. The grade of aspecific binding was determined in the presence of a high concentration (10⁻⁶ mol/l) of cold [Tyr⁴]-BN. The amount of the specifically bound, labelled hormone was expressed as the percentage of the maximum binding, i.e. the specific binding in the absence of the compounds to be tested, as shown in Table 1.

SMILES | Displacement as percentage of control net binding (1.18 µmol/l compound) | Displacement as percentage of control net binding (2.36 µmol/l compound) | Displacement as percentage of control net binding (4.71 µmol/l compound) | Displacement as percentage of control net binding (9.42 µmol/l compound) | Displacement as percentage of control net binding (18.8 µmol/l compound) | Displacement as percentage of control net binding (37.6 µmol/l compound) | Displacement as percentage of control net binding (75 µmol/l compound)
CC(C)C[C@@H](CN[C@@H](CC(C)C)C(N)=O)NC(=O)[C@@H](Cc1c[nH]c2ccccc12)NC(=O)[C@H](Cc1ccccc1)NC(=O)[C@@H](Cc1c[nH]c2ccccc12)NC(=O)[C@H](N)Cc1ccc(O)cc1 [(4)] (H-[dY][dW]F[dW]-X2) | 85% | 88% | 79% | 72% | 61% | 52% | 45%
CC(C)C[C@@H](CN[C@@H](CC(C)C)C(N)=O)NC(=O)[C@@H](Cc1c[nH]c2ccccc12)NC(=O)[C@H](Cc1ccccc1)NC(=O)[C@@H](Cc1c[nH]c2ccccc12)NC(=O)Cc1ccc(O)cc1 [(1)] | 105% | 96% | 99% | 103% | 106% | 107% | 105%
CC(C)C[C@H](NC(=O)[C@H](CC(C)C)NC(=O)[C@@H](Cc1c[nH]c2ccccc12)NC(=O)[C@H](Cc1ccccc1)NC(=O)[C@@H](Cc1c[nH]c2ccccc12)NC(=O)Cc1ccc(O)cc1)C(N)=O [(I), reference compound] (X1-[dW]F[dW]LL-NH2) | 108% | 98% | 83% | 55% | 33% | 18% | 23%
